Measured values: ChEMBL document CHEMBL3120092, “Discovery of GS-9669, a thumb site II non-nucleoside inhibitor of NS5B for the treatment of genotype 1 chronic hepatitis C infection” (J Med Chem, 2014)

Tested on: Hepatitis C virus
Test: Antiviral activity against Hepatitis C virus H77 genotype 1a infected in human HuH7 cells assessed as plasma adjusted antiviral potency after 72 hrs by luciferase reporter gene assay
Assay type: functional, organism-based, Hepacivirus hominis
Conditions: genotype 1a H77, Huh-7, Plasma

SMILES | EC50 [µM]
CC(C)(C)C#Cc1cc(N(C(=O)[C@H]2CC[C@H](C)CC2)[C@H]2CC[C@H](OC3CCOC3)CC2)c(C(=O)O)s1 (some centres not stated) | 0.749
CC(C)(C#Cc1cc(N(C(=O)[C@H]2CC[C@H](C)CC2)[C@H]2CC[C@H](Oc3ccc(O)nn3)CC2)c(C(=O)O)s1)C(F)(F)F | 0.516
C[C@H]1CC[C@H](C(=O)N(c2cc(C#CC3(C(F)(F)F)CC3)sc2C(=O)O)[C@H]2CC[C@H](Oc3ccc(O)nn3)CC2)CC1 | 0.751
C[C@H]1CC[C@H](C(=O)N(c2cc(C#CC3(C(F)(F)F)CCC3)sc2C(=O)O)[C@H]2CC[C@H](Oc3ccc(O)nn3)CC2)CC1 | 0.607
CC(C)(C)C#Cc1cc(N(C(=O)[C@H]2CC[C@H](C)CC2)[C@H]2CC[C@H](OC3COC3)CC2)c(C(=O)O)s1 | 0.102
CC(C)(C)C#Cc1cc(N(C(=O)[C@H]2CC[C@H](C)CC2)[C@H]2CC[C@H](OC3CCOCC3)CC2)c(C(=O)O)s1 | 1.83
CC(C)(C#Cc1cc(N(C(=O)[C@H]2CC[C@H](C)CC2)[C@H]2CC[C@H](OC3CCOC3)CC2)c(C(=O)O)s1)CCO (some centres not stated) | 0.167
C[C@@H]1CC[C@@H](C(=O)N(c2cc(C#CC(C)(C)C)sc2C(=O)O)[C@H]2CC[C@H](OC3CCOC3)CC2)[C@@H](O)C1 (some centres not stated) | 0.138
CC(C)(C)C#Cc1cc(N(C(=O)[C@H]2CC[C@H](C)CC2)[C@H]2CC[C@@](O)(CO[C@H]3CCOC3)CC2)c(C(=O)O)s1 | 0.191

Tested on: Hepatitis C virus
Test: Antiviral activity against Hepatitis C virus H77 genotype 1a infected in human HuH7 cells assessed as observed antiviral potency after 72 hrs by luciferase reporter gene assay
Assay type: functional, organism-based, Hepacivirus hominis
Conditions: genotype 1a H77, Huh-7, 72 h

SMILES | EC50 [µM]
CC(C)(C)C#Cc1cc(N(C(=O)[C@H]2CC[C@H](C)CC2)C2CCN(S(C)(=O)=O)CC2)c(C(=O)O)s1 | 0.051
CC(C)(C)C#Cc1cc(N(C(=O)[C@H]2CC[C@H](C)CC2)C2CCN(C(=O)c3cccnc3)CC2)c(C(=O)O)s1 | 0.183
CON=C1CCC(N(c2cc(C#CC(C)(C)C)sc2C(=O)O)C(=O)[C@H]2CC[C@H](C)CC2)CC1 (some centres not stated) | 0.088
CC(C)(C)C#Cc1cc(N(C(=O)[C@H]2CC[C@H](C)CC2)[C@H]2C[C@@H](Oc3cccnc3)C2)c(C(=O)O)s1 | 0.156
CC(C)(C)C#Cc1cc(N(C(=O)[C@H]2CC[C@H](C)CC2)[C@H]2CC[C@H](OC3CCOC3)CC2)c(C(=O)O)s1 (some centres not stated) | 0.055
CC(C)(C#Cc1cc(N(C(=O)[C@H]2CC[C@H](C)CC2)[C@H]2CC[C@H](Oc3ccc(O)nn3)CC2)c(C(=O)O)s1)C(F)(F)F | 0.051
C[C@H]1CC[C@H](C(=O)N(c2cc(C#CC3(C(F)(F)F)CC3)sc2C(=O)O)[C@H]2CC[C@H](Oc3ccc(O)nn3)CC2)CC1 | 0.061
C[C@H]1CC[C@H](C(=O)N(c2cc(C#CC3(C(F)(F)F)CCC3)sc2C(=O)O)[C@H]2CC[C@H](Oc3ccc(O)nn3)CC2)CC1 | 0.12

Tested on: not listed separately
Test: Cytotoxicity against human MT4 cells after 5 days by Cell Titre Glo assay
Assay type: cell-based
Conditions: not given

SMILES | CC50 at 120 h [µM]
CC(C)(C)C#Cc1cc(N(C(=O)[C@H]2CC[C@H](C)CC2)C2CCN(S(C)(=O)=O)CC2)c(C(=O)O)s1 | > 20
CC(C)(C)C#Cc1cc(N(C(=O)[C@H]2CC[C@H](C)CC2)C2CCN(C(=O)c3cccnc3)CC2)c(C(=O)O)s1 | > 20
CON=C1CCC(N(c2cc(C#CC(C)(C)C)sc2C(=O)O)C(=O)[C@H]2CC[C@H](C)CC2)CC1 (some centres not stated) | > 20
CC(C)(C)C#Cc1cc(N(C(=O)[C@H]2CC[C@H](C)CC2)[C@H]2C[C@@H](Oc3cccnc3)C2)c(C(=O)O)s1 | > 20
CC(C)(C)C#Cc1cc(N(C(=O)[C@H]2CC[C@H](C)CC2)[C@H]2CC[C@H](OC3CCOC3)CC2)c(C(=O)O)s1 (some centres not stated) | > 20
CC(C)(C#Cc1cc(N(C(=O)[C@H]2CC[C@H](C)CC2)[C@H]2CC[C@H](Oc3ccc(O)nn3)CC2)c(C(=O)O)s1)C(F)(F)F | > 20
C[C@H]1CC[C@H](C(=O)N(c2cc(C#CC3(C(F)(F)F)CC3)sc2C(=O)O)[C@H]2CC[C@H](Oc3ccc(O)nn3)CC2)CC1 | > 20
C[C@H]1CC[C@H](C(=O)N(c2cc(C#CC3(C(F)(F)F)CCC3)sc2C(=O)O)[C@H]2CC[C@H](Oc3ccc(O)nn3)CC2)CC1 | > 20
CC(C)(C)C#Cc1cc(N(C(=O)[C@H]2CC[C@H](C)CC2)[C@H]2CC[C@H](OC3COC3)CC2)c(C(=O)O)s1 | > 20
CC(C)(C)C#Cc1cc(N(C(=O)[C@H]2CC[C@H](C)CC2)[C@H]2CC[C@H](OC3CCOCC3)CC2)c(C(=O)O)s1 | > 20
CC(C)(C#Cc1cc(N(C(=O)[C@H]2CC[C@H](C)CC2)[C@H]2CC[C@H](OC3CCOC3)CC2)c(C(=O)O)s1)CCO (some centres not stated) | > 20
C[C@@H]1CC[C@@H](C(=O)N(c2cc(C#CC(C)(C)C)sc2C(=O)O)[C@H]2CC[C@H](OC3CCOC3)CC2)[C@@H](O)C1 (some centres not stated) | > 20
CC(C)(C)C#Cc1cc(N(C(=O)[C@H]2CC[C@H](C)CC2)[C@H]2CC[C@@](O)(CO[C@H]3CCOC3)CC2)c(C(=O)O)s1 | > 20

Tested on: Hepatitis C virus
Test: Antiviral activity against Hepatitis C virus H77 genotype 1a infected in human HuH7 cells assessed as intrinsic antiviral potency after 72 hrs by luciferase reporter gene assay
Assay type: functional, organism-based, Hepacivirus hominis
Conditions: genotype 1a H77, Huh-7, 72 h

SMILES | EC50 [µM]
CC(C)(C)C#Cc1cc(N(C(=O)[C@H]2CC[C@H](C)CC2)C2CCN(S(C)(=O)=O)CC2)c(C(=O)O)s1 | 0.0087
CC(C)(C)C#Cc1cc(N(C(=O)[C@H]2CC[C@H](C)CC2)C2CCN(C(=O)c3cccnc3)CC2)c(C(=O)O)s1 | 0.043
CON=C1CCC(N(c2cc(C#CC(C)(C)C)sc2C(=O)O)C(=O)[C@H]2CC[C@H](C)CC2)CC1 (some centres not stated) | 0.0061
CC(C)(C)C#Cc1cc(N(C(=O)[C@H]2CC[C@H](C)CC2)[C@H]2C[C@@H](Oc3cccnc3)C2)c(C(=O)O)s1 | 0.0064
CC(C)(C)C#Cc1cc(N(C(=O)[C@H]2CC[C@H](C)CC2)[C@H]2CC[C@H](OC3CCOC3)CC2)c(C(=O)O)s1 (some centres not stated) | 0.0043
CC(C)(C#Cc1cc(N(C(=O)[C@H]2CC[C@H](C)CC2)[C@H]2CC[C@H](Oc3ccc(O)nn3)CC2)c(C(=O)O)s1)C(F)(F)F | 0.0049
C[C@H]1CC[C@H](C(=O)N(c2cc(C#CC3(C(F)(F)F)CC3)sc2C(=O)O)[C@H]2CC[C@H](Oc3ccc(O)nn3)CC2)CC1 | 0.0069
C[C@H]1CC[C@H](C(=O)N(c2cc(C#CC3(C(F)(F)F)CCC3)sc2C(=O)O)[C@H]2CC[C@H](Oc3ccc(O)nn3)CC2)CC1 | 0.0027
CC(C)(C)C#Cc1cc(N(C(=O)[C@H]2CC[C@H](C)CC2)[C@H]2CC[C@H](OC3COC3)CC2)c(C(=O)O)s1 | 0.0043
CC(C)(C)C#Cc1cc(N(C(=O)[C@H]2CC[C@H](C)CC2)[C@H]2CC[C@H](OC3CCOCC3)CC2)c(C(=O)O)s1 | 0.0024
CC(C)(C#Cc1cc(N(C(=O)[C@H]2CC[C@H](C)CC2)[C@H]2CC[C@H](OC3CCOC3)CC2)c(C(=O)O)s1)CCO (some centres not stated) | 0.0061
C[C@@H]1CC[C@@H](C(=O)N(c2cc(C#CC(C)(C)C)sc2C(=O)O)[C@H]2CC[C@H](OC3CCOC3)CC2)[C@@H](O)C1 (some centres not stated) | 0.002
CC(C)(C)C#Cc1cc(N(C(=O)[C@H]2CC[C@H](C)CC2)[C@H]2CC[C@@](O)(CO[C@H]3CCOC3)CC2)c(C(=O)O)s1 | 0.0043

Tested on: not listed separately
Test: Mean residence time in Sprague-Dawley rat at 0.5 mg/kg, iv
Assay type: ADME, organism-based
Set-up: dose 0.5 mg/kg, route intravenous
Conditions: in vivo

SMILES | MRT [h]
CC(C)(C)C#Cc1cc(N(C(=O)[C@H]2CC[C@H](C)CC2)[C@H]2CC[C@H](OC3CCOC3)CC2)c(C(=O)O)s1 (some centres not stated) | 3.5
CC(C)(C#Cc1cc(N(C(=O)[C@H]2CC[C@H](C)CC2)[C@H]2CC[C@H](OC3CCOC3)CC2)c(C(=O)O)s1)CCO (some centres not stated) | 0.4
C[C@@H]1CC[C@@H](C(=O)N(c2cc(C#CC(C)(C)C)sc2C(=O)O)[C@H]2CC[C@H](OC3CCOC3)CC2)[C@@H](O)C1 (some centres not stated) | 1.9
CC(C)(C)C#Cc1cc(N(C(=O)[C@H]2CC[C@H](C)CC2)[C@H]2CC[C@@](O)(CO[C@H]3CCOC3)CC2)c(C(=O)O)s1 | 0.2

Tested on: not listed separately
Test: Fraction unbound in cell culture medium at 2 uM at pH 7.4 by equilibrium dialysis method
Assay type: ADME
Conditions: not given

SMILES | fraction unbound at 2 µM
CC(C)(C)C#Cc1cc(N(C(=O)[C@H]2CC[C@H](C)CC2)C2CCN(S(C)(=O)=O)CC2)c(C(=O)O)s1 | 0.17
CC(C)(C)C#Cc1cc(N(C(=O)[C@H]2CC[C@H](C)CC2)C2CCN(C(=O)c3cccnc3)CC2)c(C(=O)O)s1 | 0.23
CON=C1CCC(N(c2cc(C#CC(C)(C)C)sc2C(=O)O)C(=O)[C@H]2CC[C@H](C)CC2)CC1 (some centres not stated) | 0.07
CC(C)(C)C#Cc1cc(N(C(=O)[C@H]2CC[C@H](C)CC2)[C@H]2C[C@@H](Oc3cccnc3)C2)c(C(=O)O)s1 | 0.04

Tested on: not listed separately
Test: Intrinsic cytotoxicity against human MT4 cells after 5 days by Cell Titre Glo assay
Assay type: cell-based
Conditions: not given

SMILES | CC50 at 120 h [µM]
CC(C)(C)C#Cc1cc(N(C(=O)[C@H]2CC[C@H](C)CC2)[C@H]2CC[C@H](OC3CCOC3)CC2)c(C(=O)O)s1 (some centres not stated) | 3.07
CC(C)(C)C#Cc1cc(N(C(=O)[C@H]2CC[C@H](C)CC2)[C@H]2CC[C@H](OC3COC3)CC2)c(C(=O)O)s1 | 8.35
CC(C)(C)C#Cc1cc(N(C(=O)[C@H]2CC[C@H](C)CC2)[C@H]2CC[C@H](OC3CCOCC3)CC2)c(C(=O)O)s1 | 1.99
CC(C)(C#Cc1cc(N(C(=O)[C@H]2CC[C@H](C)CC2)[C@H]2CC[C@H](OC3CCOC3)CC2)c(C(=O)O)s1)CCO (some centres not stated) | 31.3
C[C@@H]1CC[C@@H](C(=O)N(c2cc(C#CC(C)(C)C)sc2C(=O)O)[C@H]2CC[C@H](OC3CCOC3)CC2)[C@@H](O)C1 (some centres not stated) | 11.6
CC(C)(C)C#Cc1cc(N(C(=O)[C@H]2CC[C@H](C)CC2)[C@H]2CC[C@@](O)(CO[C@H]3CCOC3)CC2)c(C(=O)O)s1 | 18.1

Tested on: not listed separately
Test: Lipophilicity, log D of the compound by chromatography
Assay type: physicochemical
Conditions: not given

SMILES | chromatographic logD
CC(C)(C)C#Cc1cc(N(C(=O)[C@H]2CC[C@H](C)CC2)[C@H]2CC[C@H](OC3CCOC3)CC2)c(C(=O)O)s1 (some centres not stated) | 2.3
CC(C)(C)C#Cc1cc(N(C(=O)[C@H]2CC[C@H](C)CC2)[C@H]2CC[C@H](OC3COC3)CC2)c(C(=O)O)s1 | 2.6
CC(C)(C)C#Cc1cc(N(C(=O)[C@H]2CC[C@H](C)CC2)[C@H]2CC[C@H](OC3CCOCC3)CC2)c(C(=O)O)s1 | 2.4
CC(C)(C#Cc1cc(N(C(=O)[C@H]2CC[C@H](C)CC2)[C@H]2CC[C@H](OC3CCOC3)CC2)c(C(=O)O)s1)CCO (some centres not stated) | 1.6
C[C@@H]1CC[C@@H](C(=O)N(c2cc(C#CC(C)(C)C)sc2C(=O)O)[C@H]2CC[C@H](OC3CCOC3)CC2)[C@@H](O)C1 (some centres not stated) | 2.2
